What all share (type): biochemical
Assay [1] concerns the target T1, thrombin (Homo sapiens, UniProt P00734). Kind of assay: inhibition of the amidolytic activity of thrombin (chromogenic substrate H-D-Phe-Pip-Arg-paranitroaniline). The note with it: substrate 10 or 50 μM; thrombin 0.5 nM final conc.; pH 7.8; room temperature. On the procedure: The measurements were carried out on microtitre plates at room temperature. For this, in each well of the plate […] of buffer (50 mM Tris, 100 mM NaCl, 0.1% polyethylene glycol; pH 7.8) were mixed with […] of the inhibitor dissolved in DMSO and diluted in the buffer and […] of human thrombin (0.5 nM final conc.). After incubation for 10 minutes the reaction was started by the addition of the chromogenic substrate H-D-Phe-Pip-Arg-paranitroaniline (10 or 50 μM final concentration), in which Pip represents the characterizing group 2-piperidylenecarbonyl of the α-aminoacid H-Pip-OH, which is (S)-piperidine-2-carboxylic acid (or L-homoproline). The hydrolysis of the substrate was followed spectrophotometrically on a kinetic microtitre plate reader for 5 minutes.

Assay [2] concerns the target T1, thrombin. Kind of assay: thrombin test of crude products (chromogenic substrate S-2238, 405 nm). The note with it: crude product. As to the method:
5 g (1.5 mmol) of Fmoc-TGR resin according to H. Rink Tetrahedron Lett. 28, 3787 (1987) were shaken for 30 minutes. with a 20% solution of piperidine in DMF. Subsequently, the resin was washed with DMF. 1.19 g (3 mmol) of Fmoc-arginine, 950 mg (6 mmol) of 1-hydroxy-benzotriazole (HOBT--containing about 20% water), 570 mg of diisopropylcarbodiimide and DMF were added and the mixture was shaken for 1 hour. The resin was washed with DMF and shaken for 30 minutes with a 20% solution of piperidine in DMF. Thereafter, it was washed with DMF, isopropanol, water and methanol. Subsequently, the resin was distributed in equal portions in 30 reaction vessels, then 0.5 mmol of a carbonyl compound (a. paraformaldehyde, b. pivalaldehyde, c. benzaldehye, d. benzophenone and e. phenylpropionaldehyde) were added to in each case 6 of these vessels, whereafter to each 0.5 mmol of a maleimide (maleimide, N-methyl-, N-butyl-, N-cyclohexylmethyl-, N-phenyl- or N-benzyl-maleimide) was added such that each vessel contains a different pairing of carbonyl compound and maleimide. About 5 ml of a mixture of 150 ml of methanol and 8 ml of acetic acid were added to each vessel as the solvent and the batch was heated under reflux for 22 hours. After cooling the solvent was sucked off and the resin was washed in each case twice with dimethyl sulfoxide, isopropanol, water and isopropanol. The resin was then treated with in each case about 5 ml of a mixture of 40% trifluoroacetic acid, 50% dichloromethane, 5% water and 5% isopropanol and shaken for 2 hours. After filtration the 30 filtrate solutions were concentrated. 30 crude products were thus obtained as yellow oils. For mass spectroscopic and HPLC investigations about 0.5 mg of each oil was removed and taken up in […].

Assay [3] concerns the target Factor Xa (Homo sapiens, UniProt P00742). Kind of assay: inhibition of the amidolytic activity of Factor Xa (chromogenic substrate Bz-Ile-Glu-Gly-Arg-paranitroaniline). As to conditions: substrate 167 μM final concentration.

Where a name gives a salt, the structure may show the parent alone.

Chain of Factor Xa (P00742 235-488 limits assumed): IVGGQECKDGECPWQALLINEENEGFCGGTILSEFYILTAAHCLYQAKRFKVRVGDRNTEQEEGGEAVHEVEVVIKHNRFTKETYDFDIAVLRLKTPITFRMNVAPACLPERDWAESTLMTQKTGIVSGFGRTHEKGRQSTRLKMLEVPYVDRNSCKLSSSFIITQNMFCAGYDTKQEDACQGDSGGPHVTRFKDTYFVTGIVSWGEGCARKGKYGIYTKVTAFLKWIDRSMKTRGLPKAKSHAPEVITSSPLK
Chain of Factor Xa (P00742 41-179 partner limits assumed): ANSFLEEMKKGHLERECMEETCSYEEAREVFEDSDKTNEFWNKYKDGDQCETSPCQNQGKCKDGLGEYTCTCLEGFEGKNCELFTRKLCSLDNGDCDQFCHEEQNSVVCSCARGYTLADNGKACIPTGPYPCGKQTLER

Take `N=C(N)c1ccc([C@@H]2[C@@H]3C(=O)N(Cc4ccc5c(c4)OCO5)C(=O)[C@@H]3[C@H]3CCCN32)cc1` (racemic) [4.A)g), (3aRS,4SR,8aRS,8bSR)-4-[2-(Benzo[1,3]dioxol-5-ylmethyl)-1,3-dioxo-decahydro-pyrrolo[3,4-a]pyrrolizin-4-yl]-benzimidamide hydrochloride]: in assay [1], the Ki (as a rule, the dissociation constant of the complex between target and ligand, obtained from inhibition or displacement) turned out to be 90 nM.

Compound `N=C(N)c1ccc([C@H]2[C@H]3C(=O)N(Cc4ccc5c(c4)OCO5)C(=O)[C@H]3[C@@H]3CSCN32)cc1` (racemic) [Example 7.A)i), (5RS,5aSR,8aRS,8bRS)-4-[7-(Benzo[1,3]dioxol-5-ylmethyl)-6,8-dioxo-octahydro-pyrrolo[3',4':3,4]pyrrolo[1,2-c]thiazol-5-yl]-benzimidamide hydrochloride] showed an inhibitory constant (Ki) in assay [1] of 440 nM. With `N=C(N)c1ccc(C2C3C(=O)N(C(Cc4ccccc4)C(N)=O)C(=O)C3C3CCCN32)cc1` (stereo not drawn) [Example 15], in assay [2] (among the 20 crude products of Example 15), the “inhibitory activity in the thrombin test” value is listed as “highest inhibitory activity”. In assay [1], `CCCCN1C(=O)[C@@H]2[C@H](C1=O)[C@H]1CCCN1[C@@H]2c1ccc(NC(=N)N)cc1` (racemic) [Example 9, (3aRS,4SR,8aRS, 8bSR)-N-[4-(2-Butyl-1,3-dioxo-decahydro-pyrrolo[3,4-a]pyrrolizin-4-yl)-phenyl]-guanidinium nitrate] displayed a Ki of 110 nM. Same read-out and setting: the value for `N=C(N)c1ccc([C@@H]2[C@@H]3C(=O)N(Cc4ccccc4)C(=O)[C@@H]3[C@H]3C[C@H](O)CN32)cc1` [7.A)o), (3aR,4S,7S,8aR,8bS)-4-(2-Benzyl-7-hydroxy-1,3-dioxo-decahydro-pyrrolo[3,4-a]pyrrolizin-4-yl)-benzimidamide hydrochloride] was 670 nM. In assay [3], `N=C(N)c1ccc([C@@H]2N[C@](COCc3ccccc3)(C(=O)O)[C@@H]3C(=O)N(Cc4ccc(N)cc4)C(=O)[C@@H]32)cc1` (racemic) [Example 19, (1RS,3RS,3aSR,6aRS)-5-(4-amino-benzyl)-1-(benzyloxy-methyl)-3-(4-carbamimidoyl-phenyl)-4,6-dioxo-octahydro-pyrrolo[3,4-c]pyrrole-1-carboxylic acid hydrochloride] registered an inhibition constant (Ki) of 76 nM. Same read-out and setting: the same measure for `N=C(N)c1ccc([C@@H]2N[C@](COCc3ccccc3)(C(=O)O)[C@@H]3C(=O)N(Cc4ccc([N+](=O)[O-])cc4)C(=O)[C@@H]32)cc1` (racemic) [Example 18, (1RS,3RS,3aSR,6aRS)-1-(benzyloxy-methyl)-3-(4-carbamimidoyl-phenyl)-5-(4-nitro-benzyl)-4,6-dioxo-octahydro-pyrrolo[3,4-c]pyrrole-1-carboxylic acid hydrochloride]: 98 nM. Turning to `CSCCC1(C(=O)O)NC(c2ccc(C(=N)N)cc2)C2C(=O)N(CC3CCCCC3)C(=O)C21` (stereo not drawn) [Example 13 n), 5-cyclohexylmethyl-1-(2-methylsulfanyl-ethyl)-3-(4-carbamimidoyl-phenyl)-4,6-dioxo-octahydro-pyrrolo[3,4-c]pyrrole-1-carboxylic acid], the “inhibitory activity in the thrombin test” value in assay [2] (among the named cycloadducts of Example 13) is listed as “greatest inhibitory activity”. In the case of `N=C(N)c1ccc(C2C3C(=O)N(c4ccccc4)C(=O)C3C(CO)(C(=O)O)N2CCC(N)=O)cc1` (stereo not drawn) [Example 14 p), 3-hydroxymethyl-5-phenyl-1-(4-carbamimidoyl-phenyl)-2-(2-carbamoyl-ethyl)-4,6-dioxo-octahydro-pyrrolo[3,4-c]pyrrole-3-carboxylic acid], the “inhibitory activity (determined according to Example 12)” value in assay [2] (among the products of Example 14) is given as “highest inhibitory activity”. On to `N=C(N)NCCCC1(C(N)=O)NC(c2ccccc2)C2C(=O)N(c3ccccc3)C(=O)C21` (stereo not drawn) [Example 12 m), 3,5-diphenyl-1-(3-guanidino-propyl)-4,6-dioxo-octahydro-pyrrolo[3,4-c]pyrrole-1-carboxamide], for which the “inhibitory activity in the thrombin test” value in assay [2] (among the named cycloadducts of Example 12) is listed as “greatest inhibitory activity”. As for `N=C(N)c1ccc([C@@H]2[C@@H]3C(=O)N(CC4CCCCC4)C(=O)[C@@H]3[C@H]3CCCN32)cc1` (racemic) [7.A)g), (3aRS,4SR,8aRS,8bSR)-4-(2-Cyclohexylmethyl-1,3-dioxo-decahydro-pyrrolo[3,4-a]pyrrolizin-4-yl)-benzimidamide hydrochloride], the affinity in assay [1] corresponds to a Ki of 350 nM. The same measure, in the same setting: the value for `C[C@H]1[C@@H]2C(=O)N(Cc3ccccc3)C(=O)[C@@H]2[C@H](c2ccc(C(=N)N)cc2)N1C` (racemic) [4.A)a), (1RS,3SR,3aRS,6aSR)-4-(5-Benzyl-2,3-dimethyl-4,6-dioxo-octahydro-pyrrolo[3,4-c]pyrrol-1-yl)-benzimidamide hydrochloride] was 670 nM.
